Where a SMILES comes first, the peptide text is derived from it. Bridges are numbered along the chain shown (N, C = ends). [ ]: non-standard residue; d: D form. The star is where a group is joined. Threoninol(2S,3R) = C[C@@H](O)[C@H](CO)N*
Assays:
[1] = molecular target: T1, Angiotensin-converting enzyme (Oryctolagus cuniculus, UniProt P12822); assay type: tissue-based, Lung;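 note: enzymatic inhibition of angiotensin-converting enzyme measured with FAPGG as the substrate; in other assays of this panel Not Active means under 50% inhibition at 10 µM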
T1 sequence (P12822 whole entry): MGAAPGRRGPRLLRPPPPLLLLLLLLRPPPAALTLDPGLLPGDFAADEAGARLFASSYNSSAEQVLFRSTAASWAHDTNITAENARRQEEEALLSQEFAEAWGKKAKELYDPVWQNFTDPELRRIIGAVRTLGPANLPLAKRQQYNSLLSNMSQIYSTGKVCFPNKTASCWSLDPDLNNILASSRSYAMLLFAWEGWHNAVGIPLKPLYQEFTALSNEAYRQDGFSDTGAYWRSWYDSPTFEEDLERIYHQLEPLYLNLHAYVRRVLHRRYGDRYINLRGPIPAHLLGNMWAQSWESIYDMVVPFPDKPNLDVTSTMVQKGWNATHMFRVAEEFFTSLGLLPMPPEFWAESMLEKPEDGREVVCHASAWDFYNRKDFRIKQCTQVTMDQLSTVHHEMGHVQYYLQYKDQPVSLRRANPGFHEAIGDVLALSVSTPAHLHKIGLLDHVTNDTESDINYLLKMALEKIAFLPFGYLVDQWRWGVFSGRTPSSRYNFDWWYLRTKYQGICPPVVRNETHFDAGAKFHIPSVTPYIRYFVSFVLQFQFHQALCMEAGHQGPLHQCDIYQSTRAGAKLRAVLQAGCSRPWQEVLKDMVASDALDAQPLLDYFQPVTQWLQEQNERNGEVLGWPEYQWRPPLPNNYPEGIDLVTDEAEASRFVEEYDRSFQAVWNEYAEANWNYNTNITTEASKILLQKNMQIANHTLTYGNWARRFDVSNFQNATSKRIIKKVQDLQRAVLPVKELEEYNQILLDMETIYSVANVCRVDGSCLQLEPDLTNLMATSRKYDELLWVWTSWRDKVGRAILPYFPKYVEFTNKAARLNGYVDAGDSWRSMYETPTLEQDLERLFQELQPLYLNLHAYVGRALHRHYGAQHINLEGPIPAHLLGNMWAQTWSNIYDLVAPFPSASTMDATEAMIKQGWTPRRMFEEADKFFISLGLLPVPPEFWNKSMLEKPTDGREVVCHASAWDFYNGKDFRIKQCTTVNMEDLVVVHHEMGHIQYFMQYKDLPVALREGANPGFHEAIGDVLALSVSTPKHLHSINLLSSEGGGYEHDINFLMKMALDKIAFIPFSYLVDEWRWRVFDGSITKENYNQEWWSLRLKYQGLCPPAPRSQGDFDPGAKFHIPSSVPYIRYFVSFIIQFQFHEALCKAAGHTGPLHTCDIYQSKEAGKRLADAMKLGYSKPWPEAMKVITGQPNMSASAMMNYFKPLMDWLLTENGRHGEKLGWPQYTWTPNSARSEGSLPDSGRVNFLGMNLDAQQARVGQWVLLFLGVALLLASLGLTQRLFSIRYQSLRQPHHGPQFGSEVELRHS

[2] = molecular target: Platelet-activating factor receptor (Homo sapiens, UniProt P25105); assay type: tissue-based; note: in other assays of this panel Not Active means under 50% inhibition at 10 µM
[3] = molecular target: Aldo-keto reductase family 1 member B1 (Rattus norvegicus, UniProt P07943); test: biochemical; assay type: tissue-based, Lens of camera-type eye;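 note: inhibition of aldose reductase enzyme activity, measured with DL-glyceraldehyde as the substrate; in other assays of this panel Not Active means under 50% inhibition at 10 µM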
[4] = molecular target: T2, B2 bradykinin receptor (Homo sapiens, UniProt P30411); assay type: cell membranes, Membrane; conditions: chem-1; note: in other assays of this panel Not Active means under 50% inhibition at 10 µM
T2 sequence (P30411 whole entry): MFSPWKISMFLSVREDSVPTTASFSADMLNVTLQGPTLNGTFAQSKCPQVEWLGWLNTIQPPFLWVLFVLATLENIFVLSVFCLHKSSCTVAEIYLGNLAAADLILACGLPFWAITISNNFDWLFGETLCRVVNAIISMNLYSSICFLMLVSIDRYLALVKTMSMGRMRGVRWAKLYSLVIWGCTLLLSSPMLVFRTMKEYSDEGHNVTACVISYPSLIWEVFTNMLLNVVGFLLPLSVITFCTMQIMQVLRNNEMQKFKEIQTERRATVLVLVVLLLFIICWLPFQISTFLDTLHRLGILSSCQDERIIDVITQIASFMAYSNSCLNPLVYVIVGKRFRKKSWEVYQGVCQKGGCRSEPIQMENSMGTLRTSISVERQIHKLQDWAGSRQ

[5] = molecular target: T3, Type-2 angiotensin II receptor (Homo sapiens, UniProt P50052); assay type: cell-based; conditions: cho-k1; note: in other assays of this panel Not Active means under 50% inhibition at 10 µM
T3 sequence (P50052 whole entry): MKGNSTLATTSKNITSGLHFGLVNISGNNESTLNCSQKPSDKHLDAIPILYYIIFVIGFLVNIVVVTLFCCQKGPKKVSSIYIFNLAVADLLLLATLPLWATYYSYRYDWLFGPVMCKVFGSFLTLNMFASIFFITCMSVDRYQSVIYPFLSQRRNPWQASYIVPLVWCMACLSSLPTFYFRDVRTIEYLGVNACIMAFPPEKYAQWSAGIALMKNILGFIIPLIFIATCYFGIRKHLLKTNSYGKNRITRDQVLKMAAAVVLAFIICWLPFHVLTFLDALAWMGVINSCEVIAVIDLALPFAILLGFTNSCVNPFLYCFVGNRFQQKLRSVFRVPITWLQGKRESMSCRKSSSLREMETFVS

[6] = DRUGMATRIX: Sodium/nucleoside co-transporter radioligand binding (ligand: nitrobenzylthioinosine); assay type: cell membranes, Cavia porcellus, Dunkin-Hartley, Cerebral cortex, Membrane; conditions: Not Active = under 50% inhibition at 10 µM
[7] = molecular target: T4, C-C chemokine receptor type 4 (Homo sapiens, UniProt P51679); assay type: cell membranes, Membrane; conditions: chem-1; note: in other assays of this panel Not Active means under 50% inhibition at 10 µM
T4 sequence (P51679 whole entry): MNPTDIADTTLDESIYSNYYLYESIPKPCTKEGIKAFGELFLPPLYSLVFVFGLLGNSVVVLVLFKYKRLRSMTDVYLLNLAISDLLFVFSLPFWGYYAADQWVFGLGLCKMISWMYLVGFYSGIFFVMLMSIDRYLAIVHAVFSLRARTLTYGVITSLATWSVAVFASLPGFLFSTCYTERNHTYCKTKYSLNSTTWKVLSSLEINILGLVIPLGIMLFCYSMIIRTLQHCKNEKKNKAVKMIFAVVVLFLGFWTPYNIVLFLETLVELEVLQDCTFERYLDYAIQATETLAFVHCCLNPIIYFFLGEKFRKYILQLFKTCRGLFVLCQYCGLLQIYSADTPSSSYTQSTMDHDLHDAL

[8] = molecular target: Mitogen-activated protein kinase 3 (Homo sapiens, UniProt P27361); test: DRUGMATRIX: Protein Serine/Threonine Kinase, ERK1 enzyme inhibition (substrate: Myelin Basic Protein); parameters: species or system Escherichia coli; conditions: Not Active = under 50% inhibition at 10 µM
[9] = DRUGMATRIX: Leukotriene, BLT (LTB4) radioligand binding (ligand: [3H]LTB4); assay type: cell membranes, Membrane; conditions: u-937; Not Active = under 50% inhibition at 10 µM

Chain of Platelet-activating factor receptor (P25105 whole entry): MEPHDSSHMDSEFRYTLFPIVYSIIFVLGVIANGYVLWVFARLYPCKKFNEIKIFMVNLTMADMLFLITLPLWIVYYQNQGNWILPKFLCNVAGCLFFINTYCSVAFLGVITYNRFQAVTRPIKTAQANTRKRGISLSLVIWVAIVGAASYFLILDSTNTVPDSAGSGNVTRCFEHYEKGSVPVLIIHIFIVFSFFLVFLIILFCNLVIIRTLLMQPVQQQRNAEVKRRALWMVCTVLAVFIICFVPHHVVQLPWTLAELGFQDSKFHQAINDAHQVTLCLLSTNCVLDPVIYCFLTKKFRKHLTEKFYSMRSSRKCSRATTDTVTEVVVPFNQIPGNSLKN
Chain of Mitogen-activated protein kinase 3 (P27361 whole entry): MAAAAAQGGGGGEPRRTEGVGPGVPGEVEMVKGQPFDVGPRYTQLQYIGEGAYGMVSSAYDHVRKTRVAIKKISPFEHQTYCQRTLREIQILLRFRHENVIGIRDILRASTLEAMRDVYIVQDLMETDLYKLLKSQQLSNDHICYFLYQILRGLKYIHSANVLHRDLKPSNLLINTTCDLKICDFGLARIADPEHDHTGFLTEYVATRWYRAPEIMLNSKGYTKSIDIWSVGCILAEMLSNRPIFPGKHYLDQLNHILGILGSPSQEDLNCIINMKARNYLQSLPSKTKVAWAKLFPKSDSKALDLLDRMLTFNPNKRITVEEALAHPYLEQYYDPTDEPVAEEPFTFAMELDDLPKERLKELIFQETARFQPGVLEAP

COc1ccccc1C(=O)N1CCC(Cc2ccccc2)CC1
Not Active: IC50 [1] | IC50 [2] | IC50 [3] | IC50 [4] | IC50 [5] | IC50 [6] | Ki [6] | IC50 [7] | IC50 [8] | IC50 [9] | Ki [9]

Cc1ccccc1C(=O)N1CCC(Cc2ccccc2)CC1
Not Active: IC50 [1] | IC50 [2] | IC50 [3] | IC50 [4] | IC50 [5] | IC50 [6] | Ki [6] | IC50 [7] | IC50 [8] | IC50 [9] | Ki [9]

O=C1CC[C@H](N2C(=O)c3ccccc3C2=O)C(=O)N1
Not Active: IC50 [1] | IC50 [2] | IC50 [3] | IC50 [4] | IC50 [5] | IC50 [6] | Ki [6] | IC50 [7] | IC50 [8] | IC50 [9] | Ki [9]

N=C(Nc1ccccc1)Nc1ccccc1
Not Active: IC50 [1] | IC50 [2] | IC50 [3] | IC50 [4] | IC50 [5] | IC50 [6] | Ki [6] | IC50 [7] | IC50 [8] | IC50 [9] | Ki [9]

C[C@@H](O)[C@H](CO)NC(=O)[C@@H]1CSSC[C@H](NC(=O)[C@H](N)Cc2ccccc2)C(=O)N[C@@H](Cc2ccccc2)C(=O)N[C@H](Cc2c[nH]c3ccccc23)C(=O)N[C@@H](CCCCN)C(=O)N[C@@H]([C@@H](C)O)C(=O)N1 (H-[dF]CF[dW]KTC-{Threoninol(2S,3R)}; disulfide 2-7)
Not Active: IC50 [1] | IC50 [2] | IC50 [3] | IC50 [4] | IC50 [5] | IC50 [6] | Ki [6] | IC50 [7] | IC50 [8] | IC50 [9] | Ki [9]

S=C=Nc1cccc2ccccc12 [1-NAPHTHYLISOTHIOCYANATE]
Not Active: IC50 [1] | IC50 [2] | IC50 [3] | IC50 [4] | IC50 [5] | IC50 [6] | Ki [6] | IC50 [7] | IC50 [8] | IC50 [9] | Ki [9]

C[C@](O)(CS(=O)(=O)c1ccc(F)cc1)C(=O)Nc1ccc(C#N)c(C(F)(F)F)c1 [(R)-BICALUTAMIDE]
Not Active: IC50 [1] | IC50 [2] | IC50 [3] | IC50 [4] | IC50 [5] | IC50 [6] | Ki [6] | IC50 [7] | IC50 [8] | IC50 [9] | Ki [9]

CCCC(=O)Nc1ccc(OCC(O)CNC(C)C)c(C(C)=O)c1 (stereo not drawn) [ACEBUTOLOL]
Not Active: IC50 [1] | IC50 [2] | IC50 [3] | IC50 [4] | IC50 [5] | IC50 [6] | Ki [6] | IC50 [7] | IC50 [8] | IC50 [9] | Ki [9]

CC(=O)Nc1ccc(O)cc1 [ACETAMINOPHEN]
Not Active: IC50 [1] | IC50 [2] | IC50 [3] | IC50 [4] | IC50 [5] | IC50 [6] | Ki [6] | IC50 [7] | IC50 [8] | IC50 [9] | Ki [9]

COc1cc2c(c3oc(=O)c4c(c13)CCC4=O)[C@@H]1C=CO[C@@H]1O2 [AFLATOXIN]
Not Active: IC50 [1] | Ki [1] | IC50 [2] | Ki [2] | IC50 [3] | Ki [3] | IC50 [4] | Ki [4] | IC50 [5] | Ki [5] | IC50 [6] | Ki [6] | IC50 [7] | Ki [7] | IC50 [8] | Ki [8] | IC50 [9] | Ki [9]

N=C(N)NC(=O)c1nc(Cl)c(N)nc1N [AMILORIDE]
Not Active: IC50 [1] | IC50 [2] | IC50 [3] | IC50 [4] | IC50 [5] | IC50 [6] | Ki [6] | IC50 [7] | IC50 [8] | IC50 [9] | Ki [9]

Reference: ChEMBL document CHEMBL1909046, “DrugMatrix in vitro pharmacology data”
